US7531507B2, “Acylated nonadepsipeptides containing pyridyl alanine residues” (AiCuris GmbH & Co. KG, priority 2004, dated 2009)
≈ marks a conversion by molar mass, not a printed value. Counter-ions that a name gives are not always drawn. Like-named read-outs stand apart in the source and are kept apart here. Starred links: 1 amine or outer side, 2 acyl side, 3 side chain; linkers in the order of their positions; H or OH if unused. Positions of bridges follow the written chain, without caps; N, C: chain ends. Non-standard residues stand in square brackets, D forms with d. Residues, ends and D or L forms follow the SMILES beside them. Phe(3R-OH) = O=C([C@@H](N[*:1])[C@H](O[*:3])c1ccccc1)[*:2]; Asn(3S-OH) = NC(=O)[C@@H](O)[C@H](N)C(=O)O; Leu(3R-OH) = CC(C)[C@@H](O)[C@H](N)C(=O)O; dAla(TMS) = C[Si](C)(C)C[C@@H](N)C(=O)O; 3Pal = N[C@@H](Cc1cccnc1)C(=O)O; aThr = C[C@H](O)[C@H](N)C(=O)O

Experiments:
[1] = test system: Staphylococcus aureus 133; format: cell-based; settings: Isosensitest medium, 10^5 microbes per ml, 37° C., 18-24 hours
Procedure: (§1) Determination of the Minimum Inhibitory Concentration (MIC):
(§2) The MIC is determined in the liquid dilution test in accordance with the NCCLS guidelines. Overnight cultures of Staphylococcus aureus 133, Enterococcus faecalis 27159, E. faecium 4147 and Streptococcus pneumoniae G9a are incubated with the described test substances in a 1:2 dilution series. The MIC determination is carried out with a cell count of 10^5 microbes per ml in Isosensitest medium (Difco, Irvine/USA), with the exception of S. pneumoniae which is tested in BHI broth (Difco, Irvine/USA) with 10% bovine serum with a cell count of 10^6 microbes per ml. The cultures are incubated at 37° C. for 18-24 hours, S. pneumoniae in the presence of 10% CO2.
(§3) The MIC is defined as the lowest concentration of each substance at which visible bacterial growth no longer occurs. The MIC values are reported in μg/ml.

E. faecalis ICB 27159 = format: cell-based, Enterococcus faecalis; settings: Isosensitest medium, 10^5 microbes per ml, 37° C., 18-24 hours
Procedure: as §1, §2, §3

[2] = test system: Streptococcus pneumoniae G9a; format: cell-based; settings: BHI broth with 10% bovine serum, 10^6 microbes per ml, 37° C., 18-24 hours, 10% CO2; trishydrochloride
Procedure: as §1, §2, §3

Row | Compound | MIC S. aureus 133 [1] | MIC E. faecalis ICB 27159 (E. faecalis ICB 27159; trishydrochloride) | MIC S. pneumoniae G9a [2] | MIC S. aureus 133 ([1]; trishydrochloride) | MIC E. faecalis ICB 27159 (E. faecalis ICB 27159)
1 | CC[C@H](C)[C@@H]1NC(=O)[C@@H](CCCNC(=N)N)NC(=O)[C@H](CC(C)C)NC(=O)[C@H]([C@H](O)C(C)C)NC(=O)[C@@H](NC(=O)[C@H](Cc2cccnc2)NC(=O)[C@H](N)C[Si](C)(C)C)[C@@H](c2ccccc2)OC(=O)[C@H](CO)NC(=O)[C@H]([C@H](O)C(N)=O)NC(=O)CNC(=O)[C@H]([C@H](C)O)NC1=O [Example 3, 3-(Trimethylsilyl)-D-alanyl-3-(pyridin-3-yl)-L-alanyl-de(1-D-leucyl-2-L-leucyl)-lysobactin trismethanesulphonate] (H-[dAla(TMS)][3Pal][Phe(3R-OH)][Leu(3R-OH)]L[dR]I[aThr]G[Asn(3S-OH)]S; ester 3-C) | 0.5 µg/mL | – | – | – | –
2 | CC[C@H](C)[C@@H]1NC(=O)[C@@H](CCCNC(=N)N)NC(=O)[C@H](CC(C)C)NC(=O)[C@H]([C@H](O)C(C)C)NC(=O)[C@@H](NC(=O)[C@H](Cc2cccnc2)NC(=O)[C@H](N)C[Si](C)(C)C)[C@@H](c2ccccc2)OC(=O)[C@H](CO)NC(=O)[C@H]([C@H](O)C(N)=O)NC(=O)CNC(=O)[C@H]([C@H](C)O)NC1=O [Example 6, (Trimethylsilyl)-D-alanyl-3-(pyridin-3-yl)-L-alanyl-de(1-D-leucyl-2-L-leucyl)lysobactin trishydrochloride] (H-[dAla(TMS)][3Pal][Phe(3R-OH)][Leu(3R-OH)]L[dR]I[aThr]G[Asn(3S-OH)]S; ester 3-C) | – | 1 µg/mL | <0.063 µg/mL | <0.063 µg/mL | –
3 | CC[C@H](C)[C@@H]1NC(=O)[C@@H](CCCNC(=N)N)NC(=O)[C@H](CC(C)C)NC(=O)[C@H]([C@H](O)C(C)C)NC(=O)[C@@H](NC(=O)[C@H](Cc2cccnc2)NC(=O)[C@H](N)C[Si](C)(C)C)[C@@H](c2ccccc2)OC(=O)[C@H](CO)NC(=O)[C@H]([C@H](O)C(N)=O)NC(=O)CNC(=O)[C@H]([C@H](C)O)NC1=O [Example 7, (Trimethylsilyl)-D-alanyl-3-(pyridin-3-yl)-L-alanyl-de(1-D-leucyl-2-L-leucyl)lysobactin tris-L-lactate] (H-[dAla(TMS)][3Pal][Phe(3R-OH)][Leu(3R-OH)]L[dR]I[aThr]G[Asn(3S-OH)]S; ester 3-C) | 0.063 µg/mL (≈ 0.047 µM) | – | – | – | 1 µg/mL (≈ 0.745 µM)
4 | CC[C@H](C)[C@@H]1NC(=O)[C@@H](CCCNC(=N)N)NC(=O)[C@H](CC(C)C)NC(=O)[C@H]([C@H](O)C(C)C)NC(=O)[C@@H](NC(=O)[C@H](Cc2cccnc2)NC(=O)[C@H](N)C[Si](C)(C)C)[C@@H](c2ccccc2)OC(=O)[C@H](CO)NC(=O)[C@H]([C@H](O)C(N)=O)NC(=O)CNC(=O)[C@H]([C@H](C)O)NC1=O [Example 8, (Trimethylsilyl)-D-alanyl-3-(pyridin-3-yl)-L-alanyl-de(1-D-leucyl-2-L-leucyl)lysobactin tris-D-tartrate] (H-[dAla(TMS)][3Pal][Phe(3R-OH)][Leu(3R-OH)]L[dR]I[aThr]G[Asn(3S-OH)]S; ester 3-C) | 0.25 µg/mL (≈ 0.186 µM) | – | – | – | 2 µg/mL (≈ 1.49 µM)
